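Cultured in 96-well plates, cells were exposed to test compound for 48 hours across five concentrations. GI50: concentration for 50% inhibition of growth. TGI: concentration producing complete growth inhibition.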
Tests used:
Experiment in all cases: NCI anticancer screen, dose series, 48 h
[1] = system: HS 578T breast
[2] = system: SNB-75 CNS
[3] = system: MOLT-4 leukemia
[4] = system: OVCAR-3 ovarian
[5] = system: M14 melanoma
[6] = system: SF-539 CNS
[7] = system: HCC-2998 colon
[8] = system: A549 NSCLC
[9] = system: MCF7 breast
[10] = system: NCI-H460 lung
[11] = system: SF-268 CNS
[12] = system: HOP-62 NSCLC
[13] = system: SK-OV-3 ovarian
[14] = system: MALME-3M melanoma
[15] = system: DU-145 prostate
[16] = system: RPMI-8226 leukemia
[17] = system: NCI-H226 lung
[18] = system: SK-MEL-28 melanoma
[19] = system: SR leukemia
[20] = system: OVCAR-4 ovarian
[21] = system: ACHN renal
[22] = system: IGROV1 ovarian
[23] = system: SN12C renal
[24] = system: HT29 colon
[25] = system: OVCAR-8 ovarian
[26] = system: UO-31 renal
[27] = system: MDA-MB-231 breast
[28] = system: HL-60(TB) leukemia
[29] = system: UACC-62 melanoma
[30] = system: K-562 leukemia
[31] = system: LOX IMVI melanoma
[32] = system: SK-MEL-5 melanoma
[33] = system: NCI-H522 lung
[34] = system: SNB-19 CNS
[35] = system: BT-549 breast
[36] = system: HCT-116 colon
[37] = system: HCT-15 colon
[38] = system: SW-620 colon
[39] = system: UACC-257 melanoma
[40] = system: TK-10 renal
[41] = system: KM12 colon
[42] = system: OVCAR-5 ovarian
[43] = system: SK-MEL-2 melanoma
[44] = system: CAKI-1 renal
[45] = system: PC-3 prostate
[46] = system: 786-0 renal
[47] = system: MDA-MB-435
[48] = system: T-47D breast
[49] = system: COLO 205 colon
[50] = system: RXF 393 renal
[51] = system: SF-295 CNS
[52] = system: U251 CNS
[53] = system: EKVX NSCLC
[54] = system: CCRF-CEM leukemia
[55] = system: NCI/ADR-RES ovarian

Structure (SMILES): CC(C)=Cc1cc(C)c2ccc(C)c3c2c1C(C)=C(O)C3=O
- GI50 [1]: 25.7 µM
- TGI [1]: 74.9 µM
- GI50 [2]: > 100 µM
- TGI [2]: > 100 µM
- GI50 [3]: 1190 nM
- TGI [3]: 6.05 µM
- GI50 [4]: 15.6 µM
- TGI [4]: 49.2 µM
- GI50 [5]: 20.1 µM
- TGI [5]: 45.7 µM
- GI50 [6]: 32 µM
- TGI [6]: 79.5 µM
- GI50 [7]: 18 µM
- TGI [7]: 37.4 µM
- GI50 [8]: 32 µM
- TGI [8]: > 100 µM
- GI50 [9]: 53.5 µM
- TGI [9]: > 100 µM
- GI50 [10]: 51.2 µM
- TGI [10]: > 100 µM
- GI50 [11]: 85.6 nM
- TGI [11]: > 100 µM
- GI50 [12]: 28.4 µM
- TGI [12]: 61.7 µM
- GI50 [13]: 27.4 µM
- TGI [13]: 81.2 µM
- GI50 [14]: 34.9 µM
- TGI [14]: > 100 µM
- GI50 [15]: 36.3 µM
- TGI [15]: > 100 µM
- GI50 [16]: 4.38 µM
- TGI [16]: 24.7 µM
- GI50 [17]: 30.8 µM
- TGI [17]: 81 µM
- GI50 [18]: 933 nM
- TGI [18]: > 100 µM
- GI50 [19]: 1460 nM
- TGI [19]: 4.17 µM
- GI50 [20]: > 100 µM
- TGI [20]: > 100 µM
- GI50 [21]: > 100 µM
- TGI [21]: > 100 µM
- GI50 [22]: 21 µM
- TGI [22]: 71.6 µM
- GI50 [23]: 24.3 µM
- TGI [23]: 61.6 µM
- GI50 [24]: 28.7 µM
- TGI [24]: > 100 µM
- GI50 [25]: 36.6 µM
- TGI [25]: > 100 µM
- GI50 [26]: 23.5 µM
- TGI [26]: > 100 µM
- GI50 [27]: 20.4 µM
- TGI [27]: 43.3 µM
- GI50 [28]: 2990 nM
- TGI [28]: 9.9 µM
- GI50 [29]: 19.8 µM
- TGI [29]: 46.7 µM
- GI50 [30]: 10.3 µM
- TGI [30]: 24.7 µM
- GI50 [31]: 69.3 µM
- TGI [31]: > 100 µM
- GI50 [32]: 15.3 µM
- TGI [32]: 28.9 µM
- GI50 [33]: 19.8 µM
- TGI [33]: 46.4 µM
- GI50 [34]: 23.1 µM
- TGI [34]: 75.6 µM
- GI50 [35]: 28.7 µM
- TGI [35]: 89.5 µM
- GI50 [36]: 17.7 µM
- TGI [36]: 34.8 µM
- GI50 [37]: > 100 µM
- TGI [37]: > 100 µM
- GI50 [38]: 30 µM
- TGI [38]: > 100 µM
- GI50 [39]: 39.5 µM
- TGI [39]: > 100 µM
- GI50 [40]: 44.6 µM
- TGI [40]: > 100 µM
- GI50 [41]: 29.8 µM
- TGI [41]: > 100 µM
- GI50 [42]: 18.7 µM
- TGI [42]: 43.1 µM
- GI50 [43]: 25.7 µM
- TGI [43]: 82.3 µM
- GI50 [44]: 23.8 µM
- TGI [44]: 65.9 µM
- GI50 [45]: 12.6 µM
- TGI [45]: 37.8 µM
- GI50 [46]: 35.9 µM
- TGI [46]: > 100 µM
- GI50 [47]: 27.5 µM
- TGI [47]: 73.7 µM
- GI50 [48]: 16.9 µM
- TGI [48]: 52.8 µM
- GI50 [49]: 17.1 µM
- TGI [49]: 41.6 µM
- GI50 [50]: 41.9 µM
- TGI [50]: > 100 µM
- GI50 [51]: 31.4 µM
- TGI [51]: 94.9 µM
- GI50 [52]: 17.9 µM
- TGI [52]: 56.4 µM
- GI50 [53]: 40.8 µM
- TGI [53]: > 100 µM
- GI50 [54]: 4.45 µM
- TGI [54]: 19.7 µM
- GI50 [55]: 15.7 µM
- TGI [55]: 51.3 µM
